{"source": "paper PMC6037002", "about": "“Drug targeting to decrease cardiotoxicity – determination of the cytotoxic effect of GnRH-based conjugates containing doxorubicin, daunorubicin and methotrexate on human cardiomyocytes and endothelial cells” (Beilstein Journal of Organic Chemistry, 2018)", "key": {"[1]": {"system": "human umbilical vein endothelial cells (HUVEC)", "assay": "Impedimetric measurement (xCELLigence SP), delta slope, HUVEC", "settings": "HUVEC, three parallels; for delta slope (DS), short-term: 0–2 h; for delta slope (DS), long-term: 0–72 h"}, "[2]": {"system": "MCF-7 human breast adenocarcinoma cells", "settings": "MTT assay; cited from earlier work", "source_text": "(§1) Table 1 Comparative study of cytotoxic effects and cardiotoxicity elicited by GnRH-based antitumor compounds (1–15) and reference substances (AN-152, Dox, Dau, Mtx). IC50 values show antitumor cytotoxic characteristics of the conjugates in human breast cancer (MCF-7), human colorectal adenocarcinoma (HT-29) and human acute monocytic leukemia (MM6) derived cell lines as representative tumor cells."}, "[3]": {"system": "human acute monocytic leukemia (MonoMac6) cells", "settings": "cited from earlier work", "source_text": "as §1"}, "[4]": {"system": "HT-29 human colon adenocarcinoma cells", "settings": "MTT assay; cited from earlier work", "source_text": "as §1"}, "[5]": {"system": "primary human cardiac myocytes (HCM)", "settings": "HCM, three parallels; for delta slope (DS), short-term: 0–2 h; for delta slope (DS), long-term: 0–72 h"}}, "note": "Read-outs that look alike come from different tables or passages of the source.", "data": [{"smiles": "COc1cccc2c1C(=O)c1c(O)c3c(c(O)c1C2=O)C[C@@](O)(C(C)=O)C[C@@H]3O[C@H]1C[C@H](N)[C@H](O)[C@H](C)O1", "note": "[daunorubicin]", "values": [{"measurement": "delta slope (DS), short-term", "setting": "[1]; Table S1a, 10^-6 mol/L", "value": 0.047}, {"measurement": "delta slope (DS), short-term", "setting": "[1]; Table S1a, 10^-7 mol/L", "value": 0.055}, {"measurement": "delta slope (DS), short-term", "setting": "[1]; Table S1a, 10^-8 mol/L", "value": 0.018}, {"measurement": "delta slope (DS), short-term", "setting": "[1]; Table S1a, 10^-9 mol/L", "value": -0.008}, {"measurement": "delta slope (DS), short-term", "setting": "[1]; Table S1a, 10^-10 mol/L", "value": -0.008}, {"measurement": "delta slope (DS), short-term", "setting": "[1]; Table S1a, 10^-11 mol/L", "value": 0.008}, {"measurement": "delta slope (DS), short-term", "setting": "[1]; Table S1a, 10^-12 mol/L", "value": -0.005}, {"measurement": "delta slope (DS), long-term", "setting": "[1]; Table S1a, 10^-6 mol/L", "value": "−0.019"}, {"measurement": "delta slope (DS), long-term", "setting": "[1]; Table S1a, 10^-6 mol/L, listed as Daunorubicin", "value": -0.019}, {"measurement": "delta slope (DS), long-term", "setting": "[1]; Table S1a, 10^-7 mol/L", "value": "−0.007"}, {"measurement": "delta slope (DS), long-term", "setting": "[1]; Table S1a, 10^-7 mol/L, listed as Daunorubicin", "value": -0.007}, {"measurement": "delta slope (DS), long-term", "setting": "[1]; Table S1a, 10^-8 mol/L", "value": -0.001}, {"measurement": "delta slope (DS), long-term", "setting": "[1]; Table S1a, 10^-9 mol/L", "value": -0.00113}, {"measurement": "delta slope (DS), long-term", "setting": "[1]; Table S1a, 10^-10 mol/L", "value": 0.001}, {"measurement": "delta slope (DS), long-term", "setting": "[1]; Table S1a, 10^-11 mol/L", "value": 0.002}, {"measurement": "delta slope (DS), long-term", "setting": "[1]; Table S1a, 10^-12 mol/L", "value": -0.001}, {"measurement": "delta slope (DS), short-term", "setting": "[1]; Table S3a, 10^-6 mol/L", "value": 0.003}, {"measurement": "delta slope (DS), short-term", "setting": "[1]; Table S3a, 10^-7 mol/L", "value": -0.002}, {"measurement": "delta slope (DS), short-term", "setting": "[1]; Table S3a, 10^-8 mol/L", "value": -0.008}, {"measurement": "delta slope (DS), long-term", "setting": "[1]; Table S3a, 10^-6 mol/L", "value": -0.010}, {"measurement": "delta slope (DS), long-term", "setting": "[1]; Table S3a, 10^-7 mol/L", "value": 0.001}, {"measurement": "delta slope (DS), short-term", "setting": "[1]; Table S4a, 10^-6 mol/L", "value": 0.009}, {"measurement": "delta slope (DS), short-term", "setting": "[1]; Table S4a, 10^-7 mol/L", "value": 0.016}, {"measurement": "delta slope (DS), short-term", "setting": "[1]; Table S4a, 10^-8 mol/L", "value": 0.005}, {"measurement": "delta slope (DS), long-term", "setting": "[1]; Table S4a, 10^-6 mol/L", "value": -0.058}, {"measurement": "delta slope (DS), long-term", "setting": "[1]; Table S4a, 10^-7 mol/L", "value": 0.004}, {"measurement": "delta slope (DS), long-term", "setting": "[1]; Table S4a, 10^-8 mol/L", "value": 0.006}, {"measurement": "IC50", "setting": "[2]", "value": "400 ± 100", "unit": "nM"}, {"measurement": "IC50", "setting": "[3]", "value": "0.08 ± 0.1", "unit": "nM"}, {"measurement": "IC50", "setting": "[4]", "value": "300 ± 200", "unit": "nM"}, {"measurement": "delta slope (DS), short-term", "setting": "[5]; Table S1b, 10^-6 mol/L", "value": 0.031}, {"measurement": "delta slope (DS), short-term", "setting": "[5]; Table S1b, 10^-7 mol/L", "value": -0.001}, {"measurement": "delta slope (DS), short-term", "setting": "[5]; Table S1b, 10^-8 mol/L", "value": 0.001}, {"measurement": "delta slope (DS), short-term", "setting": "[5]; Table S1b, 10^-9 mol/L", "value": -0.001}, {"measurement": "delta slope (DS), short-term", "setting": "[5]; Table S1b, 10^-10 mol/L", "value": -0.001}, {"measurement": "delta slope (DS), short-term", "setting": "[5]; Table S1b, 10^-11 mol/L", "value": -0.001}, {"measurement": "delta slope (DS), short-term", "setting": "[5]; Table S1b, 10^-12 mol/L", "value": -0.001}, {"measurement": "delta slope (DS), long-term", "setting": "[5]; Table S1b, 10^-6 mol/L", "value": "−0.019"}, {"measurement": "delta slope (DS), long-term", "setting": "[5]; Table S1b, 10^-6 mol/L, listed as Daunorubicin", "value": -0.019}, {"measurement": "delta slope (DS), long-term", "setting": "[5]; Table S1b, 10^-7 mol/L", "value": "−0.007"}, {"measurement": "delta slope (DS), long-term", "setting": "[5]; Table S1b, 10^-7 mol/L, listed as Daunorubicin", "value": -0.007}, {"measurement": "delta slope (DS), long-term", "setting": "[5]; Table S1b, 10^-8 mol/L", "value": -0.001}, {"measurement": "delta slope (DS), long-term", "setting": "[5]; Table S1b, 10^-9 mol/L", "value": -0.001}, {"measurement": "delta slope (DS), long-term", "setting": "[5]; Table S1b, 10^-10 mol/L", "value": -0.001}, {"measurement": "delta slope (DS), long-term", "setting": "[5]; Table S1b, 10^-11 mol/L", "value": -0.001}, {"measurement": "delta slope (DS), long-term", "setting": "[5]; Table S1b, 10^-12 mol/L", "value": -0.001}, {"measurement": "delta slope (DS), short-term", "setting": "[5]; Table S3b, 10^-6 mol/L", "value": 0.028}, {"measurement": "delta slope (DS), short-term", "setting": "[5]; Table S3b, 10^-8 mol/L", "value": -0.001}, {"measurement": "delta slope (DS), long-term", "setting": "[5]; Table S3b, 10^-6 mol/L", "value": -0.021}, {"measurement": "delta slope (DS), long-term", "setting": "[5]; Table S3b, 10^-7 mol/L", "value": -0.006}, {"measurement": "delta slope (DS), long-term", "setting": "[5]; Table S3b, 10^-8 mol/L", "value": -0.001}, {"measurement": "delta slope (DS), short-term", "setting": "[5]; Table S4b, 10^-6 mol/L", "value": 0.030}, {"measurement": "delta slope (DS), short-term", "setting": "[5]; Table S4b, 10^-7 mol/L", "value": -0.009}, {"measurement": "delta slope (DS), short-term", "setting": "[5]; Table S4b, 10^-8 mol/L", "value": -0.001}, {"measurement": "delta slope (DS), long-term", "setting": "[5]; Table S4b, 10^-6 mol/L", "value": -0.024}, {"measurement": "delta slope (DS), long-term", "setting": "[5]; Table S4b, 10^-7 mol/L", "value": -0.009}, {"measurement": "delta slope (DS), long-term", "setting": "[5]; Table S4b, 10^-8 mol/L", "value": -0.001}, {"measurement": "delta slope (DS), short-term", "setting": "[5]; Table S5b, 10^-8 mol/L", "value": -0.001}, {"measurement": "delta slope (DS), long-term", "setting": "[5]; Table S5b, 10^-8 mol/L", "value": -0.001}]}]}
